Reference: patent publication US7674826B2, “Use of a nutraceutical compositions in animal feed” (DSM IP Assets B.V., priority 2006, dated 2010)

Experiments:
[1] = test system: growing-fattening pig; test: Bone mineralization: ash content of dried metacarpal bone after incineration, after long-term feeding; assay type: in vivo; conditions: for Mineralization (% of ash in DM), right metacarpals: mean ± SD of 32 measurements
Protocol: The term “bone mineralization” as used herein denotes the percentage of ash after incineration of the bone compared to the dried bone matter (DM). Dry matter is defined as the weight of the bone sample after 24 hour in a drying oven compared to the initial weight of the sample.
(§1) Environment humidity percentage throughout the experiment was 50%. […] Both diets were in mash form.
(§2) All the diets were given in a mash form.
(§3) At the end of the observation all the animals were slaughtered after electronarcosis for the determination of the bone resistance and mineralization. The collected bones were the right internal and external metacarpal. Samples were prepared from each of the collected bones immediately after slaughter. After careful removal of the soft tissue, a diaphysis section was obtained by sawing each bone. The obtained sections of about 3.5-cm long were immediately subjected to compression in order to determine the force in Newton necessary to break them (maximal-breaking force at the fracture point). The measurements were performed with a LR10K compression machine, using a XLC/10K/A1 force captor and a compression device TH23-196/AL (Lloyd Instruments, Fareham, UK). The broken bones were then dried in a drying oven at 105° C. during 24 hours and the dry matter (DM) was used for the determination of ash content, which was measured after 48 h incineration at 550° C. in a muffle furnace.
(§4) Statistical treatment of the results involved the calculation of the mean and of the standard deviation as well as a two-factor hierarchical analysis of variance. The mathematical model was: Yijk=μ+Ai+Bij+Zijk, where μ is the mean, Ai is the diet effect, Bij is the combined effect of the diet and animal or pen and Zijk is the residual term. The analysis of variance was followed by a Duncan multiple range test when a significant Ai effect without Bij effect was observed (Statistical methods, 8th edition, Iowa University Press, Ames, Snedecor and Cochran, 1989). These calculations were performed using the Statistical Analysis System (SAS, 1990).

[2] = test system: pigs; conditions: diets with 0.5% or 1% benzoic acid, 32 + 91 days; statement covers all animals
Protocol: Room temperature was initially 27° C. and was lowered weekly by about 2° C. until 21-22° C.

[3] = test system: growing-fattening pig; test: Bone resistance: maximal breaking force of metacarpal diaphysis sections under compression, after long-term feeding; assay type: in vivo; conditions: for Resistance (Newton at the breaking point), right metacarpals: mean ± SD
Source text: The term “bone resistance” as used herein denotes the maximal force in measured in Newton (N) necessary to break the bone determined by a compression machine.
as §1, §2, §3, §4

[4] = group B2: 0% 32 days, then 1% benzoic acid 91 days
[5] = group C2: 0.5% 32 days, then 0.5% benzoic acid 91 days
[6] = group D2: 0.5% 32 days, then 1% benzoic acid 91 days

O=C(O)c1ccccc1 [benzoic acid]
Mineralization relative to controls (A2 = 100) [1, 4]: (102) | Mineralization (% of ash in DM), right metacarpals [1, 4]: 60.26 ± 1.31^(1)d % of ash in DM | Ash content of the bones versus controls (in words) ([1]; group C2 (0.5% benzoic acid throughout), P<0.07): numerically higher | Mineralization relative to controls (A2 = 100) [1, 5]: (102) | Mineralization (% of ash in DM), right metacarpals [1, 5]: 60.06 ± 1.33^(1)cd* % of ash in DM | Mineralization relative to controls (A2 = 100) [1, 6]: (102) | Mineralization (% of ash in DM), right metacarpals [1, 6]: 60.14 ± 1.09^(1)d % of ash in DM | Ash content of the bones versus controls (in words) ([1]; groups B2 and D2 (1% benzoic acid during 91 days)): significantly higher | Natural mortality during the experiment [2]: no natural mortality was observed | Symptoms of illness during the experiment [2]: did not present any symptoms of illness | Bone resistance versus controls (in words) ([3]; all the supplemented groups (B2, C2, D2)): significantly increased | Resistance (Newton at the breaking point), right metacarpals ([3]; group B2: 0% benzoic acid in diet 32 days, then 1% for 91 days): 625 ± 163^(2)bd Newton | Resistance (Newton at the breaking point), right metacarpals ([3]; group C2: 0.5% benzoic acid in diet 32 days, then 0.5% for 91 days): 621 ± 172^(2)d Newton | Resistance (Newton at the breaking point), right metacarpals ([3]; group D2: 0.5% benzoic acid in diet 32 days, then 1% for 91 days): 597 ± 192^(2)d Newton
